# Assay results from patent publication US11925611B2, “Use of ZT-1A and analogs thereof to prevent and/or treat neurodegenerative and neurocognitive disorders” (United States Government as Represented by the Department …, priority 2021, dated 2024).
# Read-outs that look alike come from different tables or passages of the source.
# Key:
# SPAK = SPAK (Homo sapiens, UniProt Q9UEW8); assay: Cellular inhibition of SPAK phosphorylation (pSer373); assay type: cell-based; settings: 50% inhibition of phosphorylation, n = 3, — = no inhibition
# Text: (§1) 8. Cellular Activity Profile of Inhibitors with the Salicyclic Amide
# (§2) A list of the compounds evaluated for their ability to inhibit phosphorylation of SPAK/NKCC1/KCC3 activity is illustrated in Table 1 below.
# NKCC1 = assay: Cellular inhibition of NKCC1 phosphorylation (pThr203); assay type: cell-based; settings: Isotonic conditions; n = 3; — = no inhibition; read-out: NKCC1 pThr203 (μM) Iso
# Text: as §1, §2
# KCC3 = assay: Cellular inhibition of KCC3 phosphorylation (pThr991, pThr1048); assay type: cell-based; settings: n = 3, — = no inhibition
# Text: as §1, §2
# BCAS mice = assay: Immunostaining of brains of BCAS mice (MBP, APC, NG2, caspase 3/Olig2, GFAP, tNKCC1); assay type: in vivo, C57BL/6J mice
# Text: Clinically, most patients with intracranial atherosclerotic stenosis suffer from permanent stenosis without occlusion. Therefore, to mimic clinical atherosclerotic stenosis with permanent carotid artery (CCA) hypoperfusion, a modified BCAS model was adapted by ligating the CCA guided with a 30 gauge needle (0.31 mm diameter) in the right CCA and a 33 gauge needle (0.21 mm diameter) in the left CCA with a 4-0 silk suture. […] Next, changes of total NKCC1 (tNKCC1) protein expression were surveyed in different brain regions at 2 and 4 wks post-surgery by immunofluorescence staining (IF). […] Therefore, in the rest of the study, the investigation was focused on its association to white matter GFAP^+ astrogliosis and lesion of CC and external capsul (EC) tracks. […] However, by 2 wks post-BCAS surgery, tNKCC1 immunofluorescence intensity in the CC tracks was increased by ˜3 folds (p<0.05), and further elevated to ˜6 folds by 4 wks (p<0.05, arrowhead). Data are mean±SEM, n=4, *p<0.05, **p<0.01. […] The upregulation of tNKCC1 and GFAP protein expression in the CC is correlated, with a Pearson's correlation coefficient of r=0.9 (p<0.001). […] In contrast, no elevated tNKCC1 protein was detected either in Iba1^+ microglia/macrophages or in Olig2+ oligodendrocytes (OL) at 4 wks post-BCAS surgery (FIG. 1D). Without wishing to be bound by theory, these findings indicate that upregulation of NKCC1 expression and activity in reactive astrocytes may play a critical role in white matter inflammation, OL death, and demyelination after BCAS. Next, whether administration of SPAK inhibitor ZT-1a reduces WML and improves cognitive functions was examined. Starting at 14 days after BCAS surgery in mice (male), either vehicle DMSO (Veh, 2 ml/kg) or ZT-1a (5 mg/kg, every 72 h, i.p) was administered every 3 days, until they were sacrificed at day 35 post-BCAS (FIG. 3A). […] Motor functions are similar in all groups and average swimming speeds were not different in the Sham-, Veh- and ZT-1a-treated mice. Data are mean±SEM, n=6 (Sham and ZT-1a) or 5 (Veh), *p<0.01 vs. sham, *p<0.05 vs. Veh. After completion of the neurological function tests in the Veh-control and ZT-1a-treated BCAS cohort mice (as shown in FIG. 3A and FIG. 3B), ex-vivo brains were harvested for MRI DTI (diffusion tensor imaging) analysis of WML at 4 wks post-BCAS detected by DTI. The fractional anisotropy (FA), radial diffusivity (RD), and mean diffusivity (MD) of the CC and EC tracks were analyzed. Representative images of the DEC maps in FIG. 4A show severe loss of axonal fibers (arrowheads) in the CC and left EC of the Veh-control brains. […] These observations are consistent with changes of FA, RD, and MD values (FIG. 4B). […] Then MBP expression levels were measured in these brains by immunostaining. […] Taken together, these findings illustrated that post-BCAS administration of SPAK inhibitor ZT-1a reduces BCAS-induced white matter demyelination. […] To test this, immunostaining of the same cohort of brains (of FIG. 4A-D) was conducted to analyze oligodendrocyte precursor cell (OPC) counts (NG2^+), differentiated mature OLs (APC^+), and apoptotic OLs (caspase 3^+Olig2^+) in the Sham, Veh-, and ZT-1a-treated BCAS mice. […] Referring to FIG. 5A and FIG. 5B, representative double immunofluorescence images of APC (mature oligodendrocyte marker)/NG2 (oligodendrocyte precursor cell marker) in CC (FIG. 5A) and EC (FIG. 5B) of Sham, Veh-, and ZT-1a-treated brains at 4-wk after BCAS surgery. Nuclei were counterstained with DAPI. Quantitative analyses of APC^+/DAPI^+ cells and NG2^+/DAPI^+ cells is shown. Data are mean±SEM, n=4, *p<0.05, […]. Referring to FIG. 5C, representative double immunofluorescence images of Caspase 3^+/Olig2^+ cells in CC of Sham, Veh-, and ZT-1a-treated brains. Data are mean±SEM, n=4, *p<0.05. Without wishing to be bound by theory, it is speculated that ZT-1a treatment preserves white matter integrity via reducing reactive astrocyte-mediated inflammation in white matter tracks. […]
# Coil BCAS mice = assay: Coil BCAS model, delayed administration (NOR, MBP immunostaining, CBF, body weight); assay type: in vivo
# Procedure: The efficacy of administration of ZT-1a starting at 4 wks post-BCAS surgery, when matter demyelination has reached its peak, was examined next. To test the reproducibility of these findings, in this pilot study, the Coil BCAS model was used by placing two microcoils (0.18 mm diameter) in each CCAs, a well-established model with CBF reduction and accompanied by ischemic lesion to white matter tracks, cortex, and hippocampus. Either vehicle DMSO (Veh, 2 ml/kg) or ZT-1a (5 mg/kg, every 72 h, i.p) was administered at 4-8 wks post-BCAS (i.e., during 28-56 days after coil-BCAS, every 3 days) (FIG. 7A). […] Then MBP expression levels were examined in these brains by immunostaining. […] Data are mean±SEM, n=5-8, *p<0.01 vs. sham, *p<0.05 vs. Veh.
# [1] = 4 wks post-BCAS, vs Veh-controls
compound,measurement,setting,value
Cc1cc(C(C#N)c2ccc(Cl)cc2)c(Cl)cc1NC(=O)c1cc(Cl)ccc1O (stereo not shown) [1a (ZT-1a)],IC50,"SPAK; Hypotonic conditions, read-out: SPAK pSer373 (μM) hypo",3 µM
same,IC50,"SPAK; Isotonic conditions, read-out: SPAK pSer373 (μM) Iso",1 µM
same,IC50,NKCC1,1 µM
same,IC50,"KCC3; Hypotonic conditions, read-out: KCC3 pThr1048 (μM) hypo",3 µM
same,IC50,"KCC3; Isotonic conditions, read-out: KCC3 pThr991 (μM) Iso",3 µM
same,IC50,"KCC3; Isotonic conditions, read-out: KCC3 pThr1048 (μM) Iso",1 µM
same,decrease in GFAP expression in CC,"BCAS mice; 4 weeks after BCAS, n=4",~50%
same,decrease in tNKCC1 expression in CC,"BCAS mice; 4 weeks after BCAS, n=4",~60%
same,APC+ cell counts (mature OLs) in the CC and EC tracts,BCAS mice; [1],significantly higher
same,NG2+ cell counts (OPC) in the CC and EC tracts,BCAS mice; [1],significantly higher
same,caspase 3+ OLs cell counts in CC,BCAS mice; [1],less
same,MBP protein expression in the CC and EC tracks,"BCAS mice; 4 wks post-BCAS, vs Veh-treated BCAS brains, p<0.05",less MBP loss
same,memory function in novel objective recognition test (NOR),Coil BCAS mice; 5 mg/kg i.p. every 72 h at 4-8 wks post-BCAS,no memory function impairment
same,body weight changes,"Coil BCAS mice; 5 mg/kg i.p. every 72 h at 4-8 wks post-BCAS, data not shown",No body weight changes
same,MBP levels in CC and EC tracts,"Coil BCAS mice; delayed administration 4-8 wks post-BCAS, p<0.05",significantly increased
same,cerebral blood flow (CBF),"Coil BCAS mice; delayed treatment for four weeks, by 8 wks post-BCAS",significantly improved
